Test results from EP1738742A2, “Benzyl-1,3-thiazolidine-2,4-dione compounds, compositions comprising them and use for stimulating or inducing the growth of keratinic fibres and/or for diminsihing their loss” (L'Oreal, priority 2005, dated 2007).

Target: T1, 15-PGDH de type 1 (Homo sapiens, UniProt P15428)
T1 construct: made in house
T1 sequence (P15428 1-266): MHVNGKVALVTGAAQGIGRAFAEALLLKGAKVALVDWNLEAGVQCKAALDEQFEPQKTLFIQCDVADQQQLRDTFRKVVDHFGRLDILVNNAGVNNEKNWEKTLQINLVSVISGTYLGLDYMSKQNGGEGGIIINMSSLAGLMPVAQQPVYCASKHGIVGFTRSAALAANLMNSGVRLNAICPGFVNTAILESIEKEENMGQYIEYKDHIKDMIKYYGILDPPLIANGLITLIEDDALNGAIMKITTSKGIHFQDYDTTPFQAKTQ
Assay: Test on 15-PGDH type 1: spectrophotometric enzyme inhibition (340 nm, NAD+/PGE2)
Assay type: biochemical
Details: concentration reducing the enzymatic activity of 15-PGDH by 50%; Tris 100 mM pH 7,4, 37°C, 50 µM Prostaglandine E2, 1,5 mM β-NAD
Method: L'enzyme 15-PGDH est obtenue comme décrit dans la demande FR 02/05067 déposée au nom de L'Oréal, en suspension dans un milieu adapté à une concentration de 0,3 mg/mL puis bloquée à - 80°C. Pour les besoins du test, cette suspension est décongelée et stockée dans de la glace.
Par ailleurs on prépare un tampon Tris 100 mM, pH = 7,4, contenant 0,1 mM de dithiothréitol (D5545, Sigma-Aldrich, L'isle D'Abeau Chesne, BP 701, 38297, Saint Quentin Fallavier), 1,5 mM de β-NAD (N6522, Sigma-Aldrich, L'isle D'Abeau Chesne, BP 701, 38297, Saint Quentin Fallavier), 50 µM de Prostaglandine E2 (P4172, Sigma-Aldrich, L'isle D'Abeau Chesne, BP 701, 38297, Saint Quentin Fallavier).
Dans la cuve d'un spectrophotomètre (Perkin-Elmer, Lambda 2) thermostaté à 37°C, dont la longueur d'onde de mesure est réglée à 340 nm, sont introduits 0,965 ml de ce tampon (préalablement porté à 37°C). 0,035 mL de suspension enzymatique à 37°C sont introduits dans la cuve concomitamment à l'enregistrement ( correspondant à une augmentation de la densité optique à 340 nm). La vitesse maximale de réaction est relevée.
Les valeurs essais (contenant les composés de formule (I)) sont comparées à la valeur témoin (sans composé de formule (I)); les résultats indiqués représentent soit le pourcentage d'inhibition de l'activité enzymatique de 15-PGDH pour une concentration donnée de composé de formule (I), soit la concentration à laquelle le composé de formule (I) réduit de 50% l'activité enzymatique de 15-PGDH, à savoir IC50dh.

| SMILES | IC50 |
| --- | --- |
| O=C1NC(=O)C(Cc2ccccc2Oc2ccc(Cl)cc2Cl)S1 (stereo not shown) [compound 2] | 1210 nM |
| O=C1NC(=O)C(Cc2ccccc2Oc2ccccc2)S1 (stereo not shown) [compound 3] | 2750 nM |
| CC(C)(C)c1ccc(Oc2ccccc2CC2SC(=O)NC2=O)cc1 (stereo not shown) [compound 4, 5-[2-(4-tert-butylphenoxy)benzyl]-1,3-thiazolidine-2,4-dione] | 400 nM |
| CC(C)(C)c1ccc(Oc2cccc(CC3SC(=O)NC3=O)c2)cc1 (stereo not shown) [compound 5] | 580 nM |
